Where a SMILES comes first, the peptide text is derived from it. [ ]: non-standard residue; d: D form.
Tests used:
Type in all cases: cell-based
[1] = test system: clinical strains of E. cloacae; test: MIC, microdilution, clinical strains; conditions: 0.02% BSA, 0.2% acetic acid
In short: (§1)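 MIC = lowest peptide concentration without visual growth after 20–24 h at 37° C. Range 0.125–128 μg/ml, inoculum 5.0×10^5 cfu/ml, microdilution format. Antifungal tests used potato dextrose broth; bacterial tests used MH broth.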

[2] = test system: clinical strains of E. coli; test: MIC, microdilution, clinical strains; conditions: microdilution, Muller Hinton broth-cation adjusted, 0.02% BSA, 0.2% acetic acid
In short: as §1

[3] = test system: clinical strains of K. pneumoniae; test: MIC, microdilution, clinical strains; conditions: 0.02% BSA, 0.2% acetic acid
In short: as §1

[4] = test system: clinical strains of P. aeruginosa; test: MIC, microdilution, clinical strains; conditions: 0.02% BSA, 0.2% acetic acid
In short: as §1

[5] = test system: clinical strains of Proteus mirabilis; test: MIC, microdilution, clinical strains; conditions: 0.02% BSA, 0.2% acetic acid
In short: as §1

[6] = test system: clinical strains of S. aureus; test: MIC, microdilution, clinical strains; conditions: 0.02% BSA, 0.2% acetic acid
In short: as §1

[7] = test system: clinical strains of S. pneumoniae; test: MIC, microdilution, clinical strains; conditions: 0.02% BSA, 0.2% acetic acid
In short: as §1

[8] = test system: clinical strains of Serratia marcescens; test: MIC, microdilution, clinical strains; conditions: 0.02% BSA, 0.2% acetic acid
In short: as §1

[9] = test system: clinical strains of A. johnsonii; test: MIC, microdilution, clinical strains; parameters: unit: μg/ml; conditions: Acinetobacter johnsonii strain 1, Muller Hinton broth-cation adjusted, 0.02% BSA, 0.2% acetic acid
In short: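 For A. johnsonii, Mueller Hinton broth; for the clinical yeasts, Potato dextrose broth. In both, 5.0×10^5 cfu/ml was exposed to peptide over 0.125–128 μg/ml for 20–24 h at 37 °C, and MIC was read as the lowest concentration showing no visual growth.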

[10] = test system: clinical strains of Acinetobacter baumannii; test: MIC, microdilution, clinical strains; parameters: unit: μg/ml; conditions: 0.02% BSA, 0.2% acetic acid
In short: as §1

C. glabrata = test: MIC, clinical yeast strains
In short: (§2)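 Broth microdilution with inocula adjusted to 5.0×10^5 cfu/ml; peptides tested at 0.125 to 128 μg/ml and incubated at 37° C for 20 to 24 hours. Bacteria were grown in Mueller Hinton broth, yeasts in potato dextrose broth. MIC was the lowest concentration showing no visible growth.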

C. parapsilosis = test: MIC, clinical yeast strains
In short: as §2

Candida albicans = test: MIC, clinical yeast strains
In short: as §2

C. quillermondiae = test: MIC, clinical yeast strains; parameters: Minimum inhibitory concentration: unit: μg/ml; conditions: C. quillermondiae clinical yeast strain 1
In short: as §2

Structure (SMILES): CC(C)C[C@@H](NC(=O)[C@H](N)CCCNC(=N)N)C(=O)N[C@H](CCCCN)C(=O)N[C@H](Cc1c[nH]c2ccccc12)C(=O)N[C@H](Cc1ccccc1)C(=O)N[C@H](CC(C)C)C(=O)N[C@H](CC(C)C)C(=O)N[C@H](Cc1ccccc1)C(=O)N[C@H](CCCNC(=N)N)C(=O)N[C@H](CCCCN)C(=O)N[C@H](CCCNC(=N)N)C(=O)O [Chain308D] (H-[dR][dL][dK][dW][dF][dL][dL][dF][dR][dK][dR]-OH)
- Minimum inhibitory concentration ([1]; Enterobacter cloacae strain 1, Muller Hinton broth-cation adjusted): 2
- Minimum inhibitory concentration ([1]; Enterobacter cloacae strain 2, Muller Hinton broth-cation adjusted): 2
- Minimum inhibitory concentration ([1]; Enterobacter cloacae strain 3, Muller Hinton broth-cation adjusted): 2
- Minimum inhibitory concentration ([1]; Enterobacter cloacae strain 4, Muller Hinton broth-cation adjusted): 2
- Minimum inhibitory concentration ([1]; Enterobacter cloacae strain 5, Muller Hinton broth-cation adjusted): 2
- Minimum inhibitory concentration ([2]; Escherichia coli strain 1): 1
- Minimum inhibitory concentration ([2]; Escherichia coli strain 2): 0.5
- Minimum inhibitory concentration ([2]; Escherichia coli strain 3): 1
- Minimum inhibitory concentration ([2]; Escherichia coli strain 4): 1
- Minimum inhibitory concentration ([2]; Escherichia coli strain 5): 1
- Minimum inhibitory concentration ([3]; Klebsiella pneumoniae strain 1, Muller Hinton broth-cation adjusted): 4
- Minimum inhibitory concentration ([3]; Klebsiella pneumoniae strain 2, Muller Hinton broth-cation adjusted): 4
- Minimum inhibitory concentration ([3]; Klebsiella pneumoniae strain 3, Muller Hinton broth-cation adjusted): 4
- Minimum inhibitory concentration ([3]; Klebsiella pneumoniae strain 4, Muller Hinton broth-cation adjusted): 4
- Minimum inhibitory concentration ([3]; Klebsiella pneumoniae strain 5, Muller Hinton broth-cation adjusted): 4
- Minimum inhibitory concentration ([4]; Pseudomonas aeruginosa strain 1, Muller Hinton broth-cation adjusted): 8
- Minimum inhibitory concentration ([4]; Pseudomonas aeruginosa strain 2, Muller Hinton broth-cation adjusted): 8
- Minimum inhibitory concentration ([4]; Pseudomonas aeruginosa strain 3, Muller Hinton broth-cation adjusted): 4
- Minimum inhibitory concentration ([4]; Pseudomonas aeruginosa strain 4, Muller Hinton broth-cation adjusted): 4
- Minimum inhibitory concentration ([4]; Pseudomonas aeruginosa strain 5, Muller Hinton broth-cation adjusted): 4
- Minimum inhibitory concentration ([5]; Proteus mirabilis strain 1, Muller Hinton broth-cation adjusted): >128
- Minimum inhibitory concentration ([5]; Proteus mirabilis strain 2, Muller Hinton broth-cation adjusted): 32
- Minimum inhibitory concentration ([5]; Proteus mirabilis strain 3, Muller Hinton broth-cation adjusted): 128
- Minimum inhibitory concentration ([5]; Proteus mirabilis strain 4, Muller Hinton broth-cation adjusted): >128
- Minimum inhibitory concentration ([5]; Proteus mirabilis strain 5, Muller Hinton broth-cation adjusted): >128
- Minimum inhibitory concentration ([6]; Staphylococcus aureus strain 1, Muller Hinton broth-cation adjusted): 1
- Minimum inhibitory concentration ([6]; Staphylococcus aureus strain 2, Muller Hinton broth-cation adjusted): 2
- Minimum inhibitory concentration ([6]; Staphylococcus aureus strain 3, Muller Hinton broth-cation adjusted): 1
- Minimum inhibitory concentration ([6]; Staphylococcus aureus strain 4, Muller Hinton broth-cation adjusted): 2
- Minimum inhibitory concentration ([6]; Staphylococcus aureus strain 5, Muller Hinton broth-cation adjusted): 2
- Minimum inhibitory concentration ([7]; Streptococcus pneumoniae strain 1, Muller Hinton broth-cation adjusted): 8
- Minimum inhibitory concentration ([7]; Streptococcus pneumoniae strain 2, Muller Hinton broth-cation adjusted): 4
- Minimum inhibitory concentration ([7]; Streptococcus pneumoniae strain 3, Muller Hinton broth-cation adjusted): 8
- Minimum inhibitory concentration ([7]; Streptococcus pneumoniae strain 4, Muller Hinton broth-cation adjusted): 2
- Minimum inhibitory concentration ([7]; Streptococcus pneumoniae strain 5, Muller Hinton broth-cation adjusted): 4
- Minimum inhibitory concentration ([8]; Serratia marcescens strain 1, Muller Hinton broth-cation adjusted): 128
- Minimum inhibitory concentration ([8]; Serratia marcescens strain 2, Muller Hinton broth-cation adjusted): 128
- Minimum inhibitory concentration ([8]; Serratia marcescens strain 3, Muller Hinton broth-cation adjusted): 64
- Minimum inhibitory concentration ([8]; Serratia marcescens strain 4, Muller Hinton broth-cation adjusted): >128
- Minimum inhibitory concentration ([8]; Serratia marcescens strain 5, Muller Hinton broth-cation adjusted): 128
- Minimum inhibitory concentration [9]: 4
- Minimum inhibitory concentration ([10]; Acinetobacter baumannii strain 1, Muller Hinton broth-cation adjusted): 4
- Minimum inhibitory concentration ([10]; Acinetobacter baumannii strain 2, Muller Hinton broth-cation adjusted): 4
- Minimum inhibitory concentration ([10]; Acinetobacter baumannii strain 3, Muller Hinton broth-cation adjusted): 4
- Minimum inhibitory concentration ([10]; Acinetobacter baumannii strain 4, Muller Hinton broth-cation adjusted): 2
- Minimum inhibitory concentration ([10]; Acinetobacter baumannii strain 5, Muller Hinton broth-cation adjusted): 2
- Minimum inhibitory concentration (C. glabrata; C. glabrata clinical yeast strain 1): 16
- Minimum inhibitory concentration (C. glabrata; C. glabrata clinical yeast strain 2): 16
- Minimum inhibitory concentration (C. glabrata; C. glabrata clinical yeast strain 3): 16
- Minimum inhibitory concentration (C. glabrata; C. glabrata clinical yeast strain 4): 16
- Minimum inhibitory concentration (C. parapsilosis; C. parapsilosis clinical yeast strain 1): 8
- Minimum inhibitory concentration (C. parapsilosis; C. parapsilosis clinical yeast strain 2): 8
- Minimum inhibitory concentration (C. parapsilosis; C. parapsilosis clinical yeast strain 3): 8
- Minimum inhibitory concentration (C. parapsilosis; C. parapsilosis clinical yeast strain 4): 4
- Minimum inhibitory concentration (Candida albicans; Candida albicans clinical yeast strain 1): 16
- Minimum inhibitory concentration (Candida albicans; Candida albicans clinical yeast strain 2): 16
- Minimum inhibitory concentration (Candida albicans; Candida albicans clinical yeast strain 3): 16
- Minimum inhibitory concentration (Candida albicans; Candida albicans clinical yeast strain 4): 16
- Minimum inhibitory concentration (Candida albicans; Candida albicans clinical yeast strain 5): 16
- Minimum inhibitory concentration (C. quillermondiae): 4

Source: US10457710B2, “Antimicrobial peptides, their variants and uses” (priority 2015, dated 2019)
